Patent US12239661B2, “Methods and compositions for treating undesired implanted tissue filler” (priority 2019, dated 2025)
Values joined by “and” are separate entries in the source; they are usually repeats but may differ in a detail not shown here. Identical values can stand only once. Marks after values point to notes of the source that are not given here.

What was measured:
[1] = In vivo CT of filler nodule volume, density and 3D shape after test solutions 0-8 (Example 3); conditions: for Change in Volume as percent of Injected Volume, Day 14/15: Example 3 (Day 14); for Change in Volume as percent of Injected Volume, Day 14/15 / Change in Volume as percent of Injected Volume, Day 0 + 2 h / Change in Volume as percent of Injected Volume, Day 0 + 4 h / Change in Volume as percent of Injected Volume, Day 1 / Change in Volume as percent of Injected Volume, Day 3 / Change in Volume as percent of Injected Volume, Day 7 / Change in Volume as percent of Injected Volume, Day 0 + 1 h 15: mean; for Change in Volume as percent of Injected Volume, Day 0 + 2 h / Change in Volume as percent of Injected Volume, Day 0 + 4 h / Change in Volume as percent of Injected Volume, Day 1 / Change in Volume as percent of Injected Volume, Day 3 / Change in Volume as percent of Injected Volume, Day 7 / Change in Volume as percent of Injected Volume, Day 0 + 1 h 15: Example 3; for Change in Volume as percent of Injected Volume, Day 0 + 1 h 15: 1.5 mL solution into 500 μl nodule
Description: One hour after filler injections (T=1 h), 1.5 mL of selected solutions (Table 5, solutions 0-8, test items, solution 0 is normal saline and not hyperosmotic) were injected each into 9 dermal filler nodules in the right flank (ventral area).
A total of 7 CT-scans were performed at 1 h 15, 2 h, 4 h, 1 day (24 h), 3, 7 and 14 days after injection of the dermal filler. The clinical state of each animal is assessed once a week by body weight measurement and clinical observations.
The 10 SC injections of dermal filler on Day 0 were performed in the ventral area, (five nodules on each flank of the ventral area) for each pig. For each SC nodule, a theoretical volume of 500 μl was administered. One hour (±5 min) after injection of dermal filler, SC injection of the different solutions (prepared the day before) were performed into nine (9) nodules of dermal. For each SC nodule, a theoretical volume of 1.5 mL of test solution was administered.
The X-ray computed tomography acquisitions were performed with the Computed Tomography Scanner BrightSpeed 16 (General Electric). In order to measure the volume and the mean density and to visualize the 3D shape of the dermal filler (Radiesse® filler with or without test solution) injected, in vivo CT-scans were performed on Day 0: 1 h 15 (±10 min), 2 h (±15 min) and 4 h (±20 min), on Day 1 (24 h+1 h), Day 3, Day 7 and Day 14.
During CT acquisition on Day 0, the pigs received an IM injection of anesthesia. The animals were maintained under anesthesia until the CT acquisition at T=2 h (2 h after dermal filler injection session). Between these CT acquisitions, the animals were under surveillance in the recovery room on a heating mat with fluidotherapy. At the end of the CT acquisition at T=2 h, the pigs received a tattoo around each injected site. During the CT acquisitions at T=4 h and on Days 1, 3, 7 and 14, pigs received an IM injection of anesthesia. For the CT-scans, animals were positioned in dorsal recumbency and acquisitions were centered on the injection sites. The parameters of the CT-scan are described in Table 5.
The CT acquisition was analyzed with the software Avizo version 9.2.0. The objective of this analysis was to assess the degradation over time of the dermal filler injected by SC route after injection of different test solutions.
An image segmentation processing was performed on each CT acquisition. First, a manual pre-segmentation was performed around each nodule in order to roughly isolate the voxels corresponding to dermal filler product, which defined a Region of Interest (ROI). Second, an automatic segmentation was applied on the previously defined ROI using a global grey level thresholding procedure.
On day 0, a farm pig received ten (10) SC injections of Radiesse® dermal filler 0.5 mL (ventral area) (10 nodules in total). One hour after filler injections (T=1 h), 1.5 mL of one of eight test hyperosmotic solutions (1-8 solutions, Table 5) was injected at an injection site. One injection site was untreated and one injection site was treated with normal saline (0.9% wt/v NaCl).

[2] = X-ray CT of volume, mean density and 3D shape of Radiesse nodules and injected hyperosmotic solutions (Example 4); type: in vivo, Pig (Sus scrofa domesticus)
Description: Pigs are injected by SC route with Radiesse® filler without Lidocaine (Test item). One hour after the Radiesse® filler injection, selected different hyperosmotic solutions are injected by SC route into the dermal filler nodules. For two Radiesse® filler nodules per pig, no additional product is injected; these nodules are used as controls.
The evolution over time of the volume and mean density of the Radiesse® filler nodules with injection of the different solutions are assessed by CT-scanner at selected time points: on Day 0, at about 1 hour (h) and 15 minutes (min), 2 h and 4 h after the Radiesse® filler injection and solution injection, and then, on Day 1 (about 24 h after Radiesse® filler injection), Day 3, Day 7 and Day 15.
On Day 0, 4 pigs received ten (10) SC injections of Radiesse® dermal filler (P20WK-EE-01) of about 500 μl/nodule in the flank (ventral area) at T=0. One hour after Radiesse® dermal filler injections (T=1 h), about 1.5 ml of different hyperosmotic solutions (P20WK-EE-02 to P20WK-EE-05) were each injected into 8 Radiesse® filler nodules. Two Radiesse® filler nodules per animal were not injected with hyperosmotic solution and served as controls.
A total of 7 CT-scans were performed at 1 h 15±10 min, 2 h±15 min, 4 h±20 min, 1 day (24 h±1 h), 3, 7 and 15 days after injection of the dermal filler, as described in FIG. 9A.
On Day 0 (TO), 10 SC injections of test item P20WK-EE-01 (Radiesse® dermal filler) were performed in the ventral area (five nodules on each flank of the ventral area). For each SC nodule, a theoretical volume of 500 μL was administered. One hour (±5 min) after injection of dermal filler, SC injections of the different solutions (prepared on Day −3) were performed into 8 nodules of dermal filler. For each injection of solution, a theoretical volume of 1.5 mL was administered (see, e.g., injection scheme in Table 11).
In order to measure the volume, the mean density and to visualize the 3D shape of the dermal filler SC injected (in presence or absence of different hyperosmotic solutions), in vivo CT-scans were performed on Day 0: 1 h 15 (±10 min), 2 h (±15 min) and 4 h (±20 min), on Day 1 (24 h±1 h), Day 3, Day 7 and Day 15.
The CT acquisitions are analyzed with the software Avizo version 9.2.0. The objective of this analysis was to assess the dispersion over time of the Radiesse® dermal filler injected by SC route after injection of different hyperosmotic solutions.
To achieve this goal, the evolution of these parameters is observed over time: • the volume of each nodule (Radiesse® dermal filler and solution separately), • the mean density of each nodule (Radiesse® dermal filler and solution separately), • the 3D shape of each nodule by visualization of the 3D model of each nodule at each time point (Radiesse® dermal filler with or without solution separately). Segmentation:
An image segmentation is performed on each CT acquisition on the […] reconstruction. At first, a manual pre-segmentation is performed around each nodule in order to roughly isolate the voxels corresponding to Radiesse® dermal filler and hyperosmotic solutions and defined a Region of Interest (ROI). Secondly, an automatic segmentation is applied on the ROI previously defined using a global grey level thresholding procedure. […] Similarly, all the voxels having a grey level between these HU values are selected in a ROI and corresponds to the pure solution or solution containing some dispersed Radiesse® dermal filler (see, FIG. 10).
Then, a 3D model of these selected voxels (see, FIG. 11) is obtained allowing the calculation of the total volume (in mm^3) and the mean density (in HU) of the two defined compartments of each nodule of Pure Radiesse® dermal filler and of each solution containing or not containing dispersed Radiesse® dermal filler.
The volume (in mm^3) of the ROI of Radiesse® dermal filler and the solutions corresponding to each nodule and the mean density (in HU) of each nodule are calculated at each time point.

[3] = individual nodules, [+250, +∞] HU, listed as Radiesse + Fructose
[4] = mean of 8 nodules, [+250, +∞] HU
[5] = listed as Hyperosmotic Saline (sol 1)

## O.O.O.O.O.O.O.O=S(=O)([O-])[O-].[Mg+2] [sol 5, Magnesium sulfate heptahydrate]
[1]
  Change in Volume as percent of Injected Volume, Day 14/15: 186.95%
  Change in Volume as percent of Injected Volume, Day 0 + 2 h: 159.33%
  Change in Volume as percent of Injected Volume, Day 0 + 4 h: 158.84* percent
  Change in Volume as percent of Injected Volume, Day 1: 188.43%
  Change in Volume as percent of Injected Volume, Day 3: 206.26* percent
  Change in Volume as percent of Injected Volume, Day 7: 202.32%
  Change in Volume as percent of Injected Volume, Day 0 + 1 h 15: 170.49* percent

## O=C(CO)[C@@H](O)[C@H](O)[C@H](O)CO [sol 11, Fructose]
[2]; Example 4 (Day 15), mean
  Change in Volume as percent of Injected Volume, Day 14/15: 1930%
[2]; Example 4, mean
  Change in Volume as percent of Injected Volume, Day 0 + 1 h 15: 1581* percent
  Change in Volume as percent of Injected Volume, Day 0 + 2 h: 1610%
  Change in Volume as percent of Injected Volume, Day 0 + 4 h: 1871%
  Change in Volume as percent of Injected Volume, Day 1: 2285%
  Change in Volume as percent of Injected Volume, Day 3: 1959%
  Change in Volume as percent of Injected Volume, Day 7: 2002%
[2]; between −100 HU and 250 HU
  average of the mean density of solution nodules, T=1 h 15: 58.6±6.2 HU
  average of the mean density of solution nodules, T=4 h: −1.0±7.7 HU
  mean volume of solution with potential dispersed Radiesse, Day 15: 883.9±269.9 mm^3
  mean volume of solution with potential dispersed Radiesse, T+4 h: 7000.8±1389.9 mm^3
  variation of solution volume on Day 15 compared to the injected volume on T=1 h: −42.8%
  variation of the average of the mean density of solutions, Day 15 compared to T=1 h 15: 34.7%
[2]; [3]
  Nodule volume, Day 0 + 1 h 15: 799.1 mm^3 and 845.1 mm^3 and 739.4 mm^3 and 852.5 mm^3 and 760.4 mm^3 and 837.5 mm^3 and 793.0 mm^3 and 710.6 mm^3
  Nodule volume, Day 0 + 2 h: 795.9 mm^3 and 856.3 mm^3 and 750.5 mm^3 and 863.0 mm^3 and 770.1 mm^3 and 898.7 mm^3 and 808.3 mm^3 and 712.1 mm^3
  Nodule volume, Day 0 + 4 h: 1039.3 mm^3 and 957.8 mm^3 and 861.1 mm^3 and 985.4 mm^3 and 902.9 mm^3 and 1039.4 mm^3 and 912.1 mm^3 and 796.2 mm^3
  Nodule volume, Day 1: 1168.5 mm^3 and 1120.2 mm^3 and 1122.3 mm^3 and 1226.3 mm^3 and 1085.5 mm^3 and 1165.0 mm^3 and 1153.8 mm^3 and 1115.5 mm^3
  Nodule volume, Day 3: 1043.6 mm^3 and 1039.7 mm^3 and 961.0 mm^3 and 1053.3 mm^3 and 969.6 mm^3 and 992.2 mm^3 and 891.2 mm^3 and 897.7 mm^3
  Nodule volume, Day 7: 1041.9 mm^3 and 1040.7 mm^3 and 1239.0 mm^3 and 1200.9 mm^3 and 879.3 mm^3 and 953.1 mm^3 and 833.5 mm^3 and 838.3 mm^3
  Nodule volume, Day 15: 997.7 mm^3 (2×) and 997.2 mm^3 and 944.9 mm^3 and 1054.8 mm^3 and 923.5 mm^3 and 912.9 mm^3 and 905.4 mm^3
[2]; [4]
  Mean nodule volume, Day 0 + 1 h 15: 792.2 mm^3
  Mean nodule volume, Day 0 + 2 h: 806.9 mm^3
  Mean nodule volume, Day 0 + 4 h: 936.8 mm^3
  Mean nodule volume, Day 1: 1144.6 mm^3
  Mean nodule volume, Day 3: 981.0 mm^3
  Mean nodule volume, Day 7: 1003.3 mm^3
  Mean nodule volume, Day 15: 966.8±52.9 mm^3
[2]; mean of 8 nodules, [+250, +∞] HU, listed as Radiesse + Fructose
  Mean nodule volume, Day 15: 966.8 mm^3
[2]; pure Radiesse >250 HU
  average of the mean density of nodules, Day 1: 424.6±31.6 HU
  average of the mean density of nodules, Day 3: 505.0±72.2 HU
  average of the mean density of nodules, Day 15: 512.9±57.4 HU

## [Cl-].[Na+] [sol 1, Sodium chloride]
[1]; [5]
  Change in Volume as percent of Injected Volume, Day 14/15: 175.89* percent
  Change in Volume as percent of Injected Volume, Day 0 + 1 h 15: 161.28* percent
  Change in Volume as percent of Injected Volume, Day 0 + 2 h: 157.58%
  Change in Volume as percent of Injected Volume, Day 0 + 4 h: 164.59* percent
  Change in Volume as percent of Injected Volume, Day 1: 202.75%
  Change in Volume as percent of Injected Volume, Day 3: 199.27%
  Change in Volume as percent of Injected Volume, Day 7: 192.06* percent
[1]; after 7 and 14 days, vs untreated, listed as hyperosmotic NaCl
  effect on volume at the filler injection site: significant decreased volume
